These results are taken from paper PMC10788915, “Fragment Merging, Growing, and Linking Identify New Trypanothione Reductase Inhibitors for Leishmaniasis” (Journal of Medicinal Chemistry, 2024).

Usually EC50 stands for the concentration at which the effect is half-maximal. A word on the IC50: it is the concentration needed to halve the response being measured. What is called CC50 is the concentration at which the toxic effect on the cells reaches its halfway point.

Read-outs that look alike come from different tables or passages of the source.

Data set [1] concerns L. infantum axenic amastigotes. In words: In vitro inhibition of axenic amastigote growth (MTT). The data set is classed as cell-based, Leishmania infantum. As to conditions: 72 h, read-out: axenic amastigote EC50 ± SE (95% CI). The procedure:
Axenic amastigote growth inhibition was evaluated using L. infantum strain (MHOM/TN/80/IPT1, WHO international reference strain). Axenic amastigote cultures were obtained as described previously with modifications.[45] Promastigotes were grown in Schneider’s Drosophila medium (SIGMA) containing 10% heat-inactivated fetal calf serum (FCS)(GIBCO-BRL) and 2% gentamicin (50 mg/L)(Sigma) in 25 cm^2 flasks at 22 °C. After 4–5 days, the parasites were adjusted to 1 × 10^6 parasites/mL in axenic medium MAA/20 consisting of modified medium 199 (Gibco BRL) with Hanks’ salts supplemented with 0.5% tryptic soy broth (Sigma), 0.01 mM bathocuproine disulfonic acid, 3 mM L-cysteine, 15 mM D-glucose, 5 mM L-glutamine, 4 mM NaHCO3, 0.023 mM bovine hemin, and 25 mM HEPES to a final pH of 6.5 and supplemented with 20% pretested FCS, and axenic amastigotes were obtained by shifting the incubation conditions: 198 μL of suspension was seeded in triplicate in 96-well flat bottom microplates and incubated at 37 °C, 5% CO2 for 48 h in order to allow the axenization. The amastigote cells were visualized under the light microscope to confirm transformation. Then, 2 μL of the selected compounds with varying concentrations were added: 100, 50, 25, 12.5, 6.25, 3.12, 1.56, 0.8, 0.4, 0.2, 0.1, 0.05 μM. […] Each experiment was conducted in triplicate for each drug concentration, and three independent experiments were performed. To estimate the 50% inhibitory concentration (IC50), the (3-[4.5-dimethylthiazol-2-yl]-2.5-diphenyltetrazolium bromide) (MTT) micromethod was used throughout the experiments with modification. After 72 h of incubation, 30 μL of MTT was added to each well, and the plates were further incubated for 3 h. The absorbance at 550 nm was measured with a 96-well scanner. Antileishmanial activity was expressed as the percentage of inhibition in the number of live parasites compared to that in the control (nontreated parasites). % inhibition was calculated as follows: % growth inhibition = [(absorb cell with drug × 100)/absorb cell control] – 100. Results were analyzed by GraphPad Prism 5.0, dose–response curves were obtained and IC50 deduced (GraphPad Software Inc., San Diego, USA).

Data set [2] deals with L. infantum intramacrophage amastigotes. In words: Ex vivo inhibition of intramacrophage amastigote growth. The data set is classed as cell-based, Leishmania infantum. Particulars: Leishmania infantum, Macrophage, in Mus musculus, 72 h, murine macrophages infected with L. infantum amastigotes, 72 h, read-out: intramacrophage amastigote EC50 ± SE (95% CI). As to the method:
Balb/c murine macrophages were used to perform ex vivo assay since the parasites infect them more effectively. Macrophages (5 × 10^5/well) were placed on glass coverslips within a 24-well culture plate and incubated with complete RPMI in a 5% CO2 incubator at 37 °C for 4 h to achieve cell adhesion. After this time, L. infantum amastigotes from spleens of previously infected hamsters were added onto the macrophages adhering to the coverslips at the ratio of 10:1 (parasites/macrophages). After 24 h of infection, the noninternalized amastigotes were removed by washes with RPMI. The infected macrophages were incubated with complete RPMI medium (control) or medium containing different concentrations of compounds in a 5% CO2 incubator at 37 °C for 72 h. Then, the coverslips were fixed with methanol, stained with Giemsa 10%, and analyzed by optical microscopy. The percentage of the infected macrophages and the number of amastigotes per infected macrophage were determined by random counting of 100 cells in each coverslip. Infection was judged to be adequate if more than 70% of the macrophages in the untreated control were infected. Activity for each compound was expressed as percentage of parasite burden reduction = infectivity index of treated cells/infectivity index of untreated cells. The infectivity index was calculated as follows: number of infected macrophages × mean number of amastigotes per macrophage / total number of macrophages. Nonlinear regression analysis (Graph-Pad Software Inc., San Diego, USA) was used for curve fitting and calculation of 50% inhibitory concentrations (IC50). The experiments were performed in triplicate, and two independent experiments were conducted.

The test system of data set [3] is L. infantum axenic amastigotes. As to conditions: stated for the control (Euroclone) in the axenic amastigote method; read-out: IC50 of the control drug; cited from earlier work.
Data set [4] can be described thus: Cytotoxicity assay on primary murine macrophages (MTT). The data set is classed as cell-based, Balb/c mice. Particulars: Balb/c, mouse, primary peritoneal exudate macrophages, read-out: primary murine macrophage CC50 ± SE (95% CI). As to the method:
(§1) To assess the cytotoxicity of compounds on mammalian macrophages, we tested all the compounds against both human leukemia monocyte cell line (THP-1 cells, ATCC) differentiated into macrophages by treatment with 40 ng/mL of phorbol myristate acetate (PMA; Sigma) for 48 h and peritoneal exudate macrophages harvested from Balb/c mice. […] Cell viability was evaluated using the MTT assay, and the concentration of the compound that produced a 50% reduction of cell viability in treated culture cells with respect to untreated ones (CC50) was determined by GraphPad Prism 5.0 (GraphPad Software Inc., San Diego, USA). […] The selectivity index for each compound was calculated as the ratio of cytotoxicity (CC50) in macrophages cells to activity (IC50) against Leishmania axenic amastigotes. The experiments were performed in triplicate, and two independent experiments were conducted.

The test system of data set [5] is human THP-1-derived macrophages. In words: Cytotoxicity assay on human THP-1-derived macrophages (MTT). The data set is classed as cell-based. The procedure:
as §1

Experiment in data set [6]: as above
The data set is classed as cell-based. As to conditions: human, THP-1 cells differentiated into macrophages with PMA, 72 h, MTT; read-out: human THP-1-derived macrophage CC50 ± SE (95% CI). As to the method: as §1

The target in data set [7] is T1, Leishmania infantum TR (LiTR) (Leishmania infantum, UniProt A4HSF7).
T1 construct: The TbTR and LiTR genes were subcloned in a pET28b vector; 6-His (cleaved yes); made in house; host or cells: E. coli BL21(DE3), pET28b
In words: LiTR enzymatic inhibition assay (NADPH oxidation at 340 nm). The data set is classed as biochemical. The procedure:
(§2) Enzymatic inhibition assays were performed in 50 mM HEPES pH 7.4, 40 mM NaCl at 25 °C using a JASCO V650 spectrophotometer equipped with a JASCO EHC 716 Peltier element to ensure controlled temperature. The first experiment was carried out using 50 nM LiTR, 10 or 100 μM compound to be tested, 150 μM trypanothione (trypanothione disulfide purchased from Bachem), and 100 μM NADPH (tetrasodium salt, purchased from Calbiochem). The best inhibitor candidates were then tested at concentrations ranging from 1 nM to 250 μM to determine the IC50. Assays were initiated upon addition of 100 μM NADPH to 50 nM LiTR or hGR (human glutathione reductase purchased from Sigma-Aldrich) in the presence of different concentration of compounds and 150 μM trypanothione. For both experiments, the oxidation of NADPH was followed as a decrease in absorbance at 340 nm. For each concentration of compound, the initial velocity of the NADPH oxidation was used to determine the percentage of LiTR activity with respect to that in the absence of any compound. The IC50 was determined upon fitting the residual activity of TR as a dose–response logistic equation defined as ymin + (ymax – ymin)/(1 + (x/IC50)^slope). […] The Ki was determined graphically upon linear fitting of data points for each trypanothione concentration. Data analysis was performed with QtiPlot 0.9.8.9 svn 2288, and graphs were made with Matplotlib.
(§3) Figure S3. Inhibition assay of LiTR (red) and hGR (grey) with compounds 5-6, 9-10 and 14.
(§4) Enzymatic assays were carried out at 25°C on a JASCO V650 spectrophotometer equipped with a JASCO EHC716 Peltier unit. Compound concentrations used during the experiments range from 1 […]
(§5) higher than 30 µM and 20 µM, respectively. Briefly, 50 nM LiTR or hGR (Sigma Aldrich) were mixed in 50 mM HEPES pH 7.4, 40 mM NaCl with each compound and 150 µM trypanothione or glutathione. After 3-minute incubation at 25°C, the measurement was initiated upon addition of 100 µM NADPH. The oxidation of NADPH was followed as a decrease in absorbance at 340 nm. Each initial velocity of LiTR enzymatic reaction with the compounds was expressed as a percentage of residual activity with respect to that in the absence of compound. Each data point is the mean of two measurements. The IC50 was determined upon fitting the data as a dose response logistic equation defined by the Kaleidagraph software as ymin+(ymax-ymin)/(1+(x/IC50)^slope).
(§6) (1 picture or pasted object on this page, not shown here)

Data set [8] deals with T2, hGR (human glutathione reductase) (Homo sapiens, UniProt P00390).
T2 construct: purchased Sigma-Aldrich
T2 sequence (P00390 44-522): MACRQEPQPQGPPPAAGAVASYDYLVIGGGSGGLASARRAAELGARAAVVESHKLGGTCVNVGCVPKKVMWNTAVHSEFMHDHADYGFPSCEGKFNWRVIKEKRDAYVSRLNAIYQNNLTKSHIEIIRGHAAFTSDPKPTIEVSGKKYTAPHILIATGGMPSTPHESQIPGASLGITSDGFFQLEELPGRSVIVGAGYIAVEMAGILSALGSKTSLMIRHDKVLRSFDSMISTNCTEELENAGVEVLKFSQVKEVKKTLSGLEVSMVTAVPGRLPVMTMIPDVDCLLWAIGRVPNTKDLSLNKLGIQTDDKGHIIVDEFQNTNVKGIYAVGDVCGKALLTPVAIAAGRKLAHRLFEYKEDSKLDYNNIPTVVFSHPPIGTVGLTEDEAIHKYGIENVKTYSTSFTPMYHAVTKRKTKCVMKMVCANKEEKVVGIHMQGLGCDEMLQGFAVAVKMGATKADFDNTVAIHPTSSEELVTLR
In words: hGR enzymatic inhibition assay (NADPH oxidation at 340 nm). The data set is classed as biochemical. The procedure: as §2, §3, §4, §5, §6

The nature of data set [9]: Solubility observed in the enzymatic assay. Particulars: no reliable data at concentrations higher than 30 µM (5) and 20 µM (6). The data set is classed as physicochemical. The procedure: as §3, §4, §5, §6
Data set [10] deals with primary murine macrophages. In words: Cytotoxicity assay on primary murine macrophages (MTT). The data set is classed as cell-based, Balb/c mice. As to conditions: Balb/c peritoneal macrophages, 72 h, read-out: primary murine macrophage CC50 ± SE (95% CI). As to the method: as §1

T1 sequence (A4HSF7 1-491): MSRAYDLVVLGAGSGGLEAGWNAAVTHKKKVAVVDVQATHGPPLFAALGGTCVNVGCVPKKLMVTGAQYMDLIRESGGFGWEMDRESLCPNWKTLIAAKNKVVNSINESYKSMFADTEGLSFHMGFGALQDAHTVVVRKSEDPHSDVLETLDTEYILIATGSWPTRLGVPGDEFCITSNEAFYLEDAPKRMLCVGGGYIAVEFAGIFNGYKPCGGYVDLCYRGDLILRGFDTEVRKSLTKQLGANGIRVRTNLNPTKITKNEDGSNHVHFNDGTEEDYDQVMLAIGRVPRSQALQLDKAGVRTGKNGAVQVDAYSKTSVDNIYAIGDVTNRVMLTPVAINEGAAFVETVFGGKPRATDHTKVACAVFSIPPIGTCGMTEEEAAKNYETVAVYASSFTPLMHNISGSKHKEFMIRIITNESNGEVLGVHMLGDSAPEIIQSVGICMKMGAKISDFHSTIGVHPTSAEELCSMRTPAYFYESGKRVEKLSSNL

On to `C[C@@H]1[C@H](O)[C@@H](C)/C=C/C=C/C=C/C=C/C=C/C=C/C=C/[C@H](O[C@@H]2O[C@H](C)[C@@H](O)[C@H](N)[C@@H]2O)C[C@@H]2O[C@](O)(C[C@@H](O)C[C@@H](O)[C@H](O)CC[C@@H](O)C[C@@H](O)CC(=O)O[C@H]1C)C[C@H](O)[C@H]2C(=O)O` [AmpB, Amphotericin B, reference compound], for which the half-maximal effective concentration (EC50) in [1] (Leishmania infantum) turned out to be 0.8 ± 0.4 µM; in [2], 0.54 ± 0.3 µM. In addition, in data set [3], the 50% inhibitory concentration (IC50) is 0.5 µM. Moreover, the cytotoxic concentration (CC50) at 72 h in data set [4] was 16.7 ± 2.05 µM; in data set [6] it was 21.1 ± 3 µM. Moreover, in data set [5], the “SI = human THP-1-derived macrophage CC50/axenic amastigote EC50” value is listed as 26.4.
As for `O=C(NCCc1ccc(F)cc1)c1ccc(CN(C(=O)N2CCN(CCCc3ccccc3)CC2)c2ccc(F)cc2)o1` [Compound 5, N-((5-((4-Fluorophenethyl)carbamoyl)furan-2-yl)methyl)-N-(4-fluorophenyl)-4-(3-phenylpropyl)piperazine-1-carboxamide], the EC50 came to 12 ± 1.7 µM in data set [1] and 11.5 ± 2.1 µM in data set [1] (Leishmania infantum). In addition, the IC50 was determined as 54.6 ± 20.9 µM in [7] (50 nM LiTR, 150 μM trypanothione, 100 μM NADPH, 25 °C) and 163 ± 58.8 µM in data set [8] (50 nM hGR, 100 μM NADPH, 25 °C). The “decrease in TR activity” value in data set [7] (compound at 100 μM) amounted to 35.1%. Besides, in [7] (compound at 100 μM, mean ± SD, n = 3, 100 µM), the “LiTR residual activity %” value was 65.4 ± 3.0 @100 μM %. Further, in [7] (compound at 100 μM, mean ± SD, n = 3, read-out: LiTR residual activity %), the remaining activity at 100 µM is 64.9%. In addition, the “SI (ratio of GR IC50/TR IC50)” value in data set [8] (hGR versus LiTR) is 3. The “solubility in the enzymatic assay” value in [9] is recorded as “low solubility”. Besides, the CC50 came to 9.1 ± 0.9 µM in data set [10] and 6.5 ± 0.6 µM in data set [5] (72 h, MTT, read-out: human THP-1-derived macrophage CC50 ± SE (95% CI)). Moreover, the CC50 at 72 h in [4] is 12.9 ± 0.9 µM; in [6], 9.6 ± 0.71 µM. Further, the “SI = human THP-1-derived macrophage CC50/axenic amastigote EC50” value in data set [5] was determined as 0.8.
